A short description of series [1]: Organ distribution of radiolabelled compound in mouse after oral gavage. The format is in vivo. To be noted: for % recovered radioactivity, Brain / % recovered radioactivity, Liver: normal mouse, gavage; for distribution in mouse liver (deposition and clearance): oral gavage, 30, 60 and 90 minutes (FIG. 10). As to the method: Mouse body fluids and organs were collected for different times after gavage with radiolabelled compound. Radioactivity in each sample was determined and expressed as a percentage of radio-activity recovered. Solid bars, NN-DNJ, hatched bars, NB-DNJ.
The radioactivity recovered (%) is plotted against N-alkyl chain length (C4 to C18) for 30 minutes (clear bars), 60 minutes (shaded bars) and 90 minutes (filled, black bars). […] Short chain compounds (C4-C6) are rapidly cleared in a time-dependent manner. […] The C12 to C18 analogs show the reverse trend, i.e., reduced appearance in the liver but this increases with time.
The radioactivity recovered (%) is plotted against N-alkyl chain length (C4 to C18) for 30 minutes (clear bars), 60 minutes (shaded bars) and 90 minutes (filled, black bars).
FIG. 12 is a series of four bar charts, A, B, C and D, in which radioactivity (cpm) found in the liver is plotted against time post gavage in hours (h) with four different N-alkyl analogs of deoxynojirimycin (DNJ). The four analogs shown are:; FIG. 12A, N-butyl(C4); FIG. 12B, N-nonyl (C9); FIG. 12C, N-dodecyl(C12); FIG. 12D, N-cis-13-octadecenyl (C18).
FIG. 13 is a series of four bar charts, A, B, C and D, in which radioactivity (cpm) found in the brain is plotted against time post gavage in hours (h) with the same analog compounds as in FIG. 12. The four analogs shown are: FIG. 13A, N-butyl (C4); FIG. 13B, N-nonyl (C9); FIG. 13C, N-dodecyl (C12); FIG. 13D, N-cis-13-octadecenyl (C18).
Further evidence that longer alkyl chains are taken up much better has been obtained by in vivo studies with mouse.

Series [2] relates to human myeloid (HL-60) cells. Kind of series: Inhibition of glycolipid biosynthesis in HL-60 cells (radiolabelled palmitic acid, TLC, scanning densitometry). The format is cell-based. The note with it: for times more sensitive HL-60 cells than CHO cells: HL-60 versus CHO cells. On the procedure: Cells were cultured for four days in the presence of radiolabelled palmitic acid and the following concentrations of compound:
After extraction the radioactively labelled glycolipids were separated by TLC and visualized by radioautography.
Chinese Hamster Ovary (CHO) cells and human myeloid (HL-60) cells grown in the presence of varying concentrations of inhibitor in addition to a precursor (radiolabelled palmitic acid) of glycolipid biosynthesis were treated with solvents to extract the glycolipids by the procedure described by Platt et al., J. Biol. Chem. 269, 8362-8365 (1994).
The radiolabelled lipids were separated by TLC (FIG. 1) and bands corresponding to glucosylceramide and lactosyl-ceramide were quantitated by scanning densitometry to estimate the reduction in glycolipid biosynthesis.

The test system of a further series is glycolipid biosynthesis. To be noted: according to U.S. Pat. No. 5,472,969, cited from earlier work; for dose required / activity against glycolipid biosynthesis: unit not given.
For the next series, the system named is Serum Protein. Briefly: Imino sugar (N-alkyl DNJ) binding to serum protein. It is filed as in vitro ADME. To be noted: protein bound versus non-bound radioactivity (FIG. 14). The text has this: The percentage compound radioactivity is plotted against N-alkyl chain length (C4 to C18) with the protein bound percentage shown by open circles and the non-bound percentage shown by filled circles. […] Short chain compounds (C4-C6) bind poorly but those larger than C10 are almost completely bound to protein.

For series [3], the target named is T1, HL-60 cell ceramide glucosyltransferase (Homo sapiens, UniProt Q16739).
T1 construct: endogenous in cells; host or cells: HL-60 (human myeloid) cells
T1 sequence (Q16739 1-394): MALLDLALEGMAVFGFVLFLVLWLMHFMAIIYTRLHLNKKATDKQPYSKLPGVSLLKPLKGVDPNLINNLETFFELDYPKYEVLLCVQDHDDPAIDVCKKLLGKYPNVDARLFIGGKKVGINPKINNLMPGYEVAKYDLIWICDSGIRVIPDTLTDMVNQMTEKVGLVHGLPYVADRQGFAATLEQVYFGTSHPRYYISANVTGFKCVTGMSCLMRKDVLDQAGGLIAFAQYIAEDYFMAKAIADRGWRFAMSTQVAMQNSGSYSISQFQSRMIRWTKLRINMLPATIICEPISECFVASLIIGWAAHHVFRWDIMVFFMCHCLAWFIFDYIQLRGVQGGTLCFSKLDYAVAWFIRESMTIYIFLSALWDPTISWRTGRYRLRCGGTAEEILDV
Kind of series: In vitro inhibition of HL-60 cell ceramide glucosyltransferase activity. The format is biochemical. The note with it: C4 to C18 series (FIG. 8).

In another series the test system is Hepatitis B virus (HBV). The note with it: Block et al., Nature Medicine 1998; cited from earlier work.
Series [4] deals with CHO, MDBK and HepG2 cells. Kind of series: Cell-associated radioactivity (uptake) of radiolabelled compound in cultured cells. It is filed as in vitro ADME. The note with it: MDBK and HepG2, incubated up to 24 hours.

Molecules are shown by their SMILES.

For `CCCCN1C[C@H](O)[C@@H](O)[C@H](O)[C@H]1CO` [N-butyl-DNJ, N-butyldeoxynojirimycin, reference compound], the “time after which the majority of radioactivity is found in the liver” value in series [1] (mouse, post gavage (FIG. 12)) came out at 1.5 h. The “% recovered radioactivity, Brain” value came to 0.2% in series [1] (30 min), 0.1% in series [1] (60 min) and 0.03% in series [1] (90 min). The “% recovered radioactivity, Liver” value is on record as 8.5% in series [1] (30 min), 2.8% in series [1] (60 min) and 0.9% in series [1] (90 min). In addition, the “times more sensitive HL-60 cells than CHO cells” value in series [2] is reported as “more than 10 times”. Also, the “dose required / activity against glycolipid biosynthesis” value in the series on glycolipid biosynthesis is reported as 0.01-0.1.
Turning to `CCCCCCCCN1CC(O)C(O)C(O)C1CO` (stereo not drawn) [C8], the “binding to serum protein” value with Serum Protein is “favor equally, protein and solution phase”.
For the compound `CN1C[C@H](O)[C@@H](O)[C@H](O)[C@H]1CO` [N-methyl analog], in the series with glycolipid biosynthesis, the “dose required / activity against glycolipid biosynthesis” value was “inactive”.
`CCCCCCN1C[C@H](O)[C@@H](O)[C@H](O)[C@H]1CO` [N-hexyl derivative of DNJ]: the “dose required for activity against glycolipid biosynthesis” value in the series with glycolipid biosynthesis was 0.2 mg/mL.
As for `CCCCCCCCCCN1C[C@H](O)[C@@H](O)[C@H](O)[C@H]1CO` [N-decyl-DNJ], the “distribution in mouse liver (deposition and clearance)” value in series [1] is “increased deposition and slower clearance”. In addition, the “inhibition of ceramide glucosyltransferase versus N-alkyl chain length” value in series [3] is on record as “optimal”. Moreover, the “inhibition at times lower concentrations than N-butyl-DNJ” value in series [2] (HL-60 cell-based assay) amounted to 50 times.
Consider `CCCC/C=C\CCCCCCCCCCCCN1C[C@H](O)[C@@H](O)[C@H](O)[C@H]1CO` [C18], for which, in series [1] (mouse, 24 h post gavage (FIG. 12)), the “deposition in the liver” value is listed as “significant deposition”.
Turning to `CCCCCCCCCN1C[C@H](O)[C@@H](O)[C@H](O)[C@H]1CO` [N-nonyl-DNJ, N-nonyl-1.5-dideoxy-1,5-imino-D-glucitol], the “% recovered radioactivity, Brain” value in series [1] (30 min) was found to be 0.4%; in series [1] (60 min) it was 0.3%; in series [1] (90 min), 0.4%. For the same compound, the entries for the “% recovered radioactivity, Liver” value in series [1] (30 min), in series [1] (60 min) and in series [1] (90 min) were 27.1%, 12.6% and 13.5%, respectively. In series [1], the “distribution in mouse liver (deposition and clearance)” value is “increased deposition and slower clearance”. The “binding to serum protein” value in the series on Serum Protein is “favor equally, protein and solution phase”. Also, the “inhibition of Hepatitis B virus” value with Hepatitis B virus (HBV) is “effective as an inhibitor”. Moreover, in series [4], the “increase of cell-associated radioactivity versus N-butyl-DNJ” value is recorded as 3.5-5 fold. Besides, the “times more sensitive HL-60 cells than CHO cells” value in series [2] is reported as 100 times.
